Measurements published in article PMC10135378, “Synthesis of Novel N-Heterocyclic Carbene-Ruthenium (II) Complexes, “Precious” Tools with Antibacterial, Anticancer and Antioxidant Properties” (Antibiotics, 2023).

Legend:
[1] = ABTS radical scavenging assay; conditions: for IC50: 5 min, room temperature, 730 nm
Source text: To further analyze the Ru-NHC complexes antiradical potential, we examined their capability to interfere with the ABTS radical cation, a well-known protonated radical with a characteristic maximal absorbance at 730 nm, which diminishes with the scavenging of the radical proton. The assay measures radical scavenging by the electron donation. The outcomes in terms of ABTS% scavenging activity are reported in Figure 7 and IC50 values of Ru-NHC complexes, together with the standard Trolox, on ABTS radical are summarized in Table 3 and Table S3.
The radical scavenging properties of the Ru-NHC complexes on a 2,2′-azino-bis(3-ethylbenzothiazoline-6-sulfonate) radical cation (ABTS^•+) were calculated as described by Fazio et al., with few adjustments. Briefly, 2 mM ABTS and 70 mM potassium persulfate water solutions were mixed and incubated to obtain ABTS^•+ radical stock solution (16 h, room temperature, in the dark). ABTS solution was diluted in ethanol to obtain an absorbance of 0.70 ± 0.02 at 730 nm, prior to use. Then, 2 μL of each Ru-NHC complex at different concentrations, properly dissolved in DMSO, were mixed with 198 μL of the ABTS^•+ solution in a 48-well plate obtaining the following concentrations: 0.1, 1, 10, 50, and 100 µg/mL. The solutions were vigorously shaken and incubated (5 min, room temperature, in the dark). The ABTS scavenging activity was determined at 730 nm, using a microplate reader. The control was prepared mixing 2 μL of DMSO with 198 μL of the ABTS^•+ solution. The ABTS radical scavenging was expressed as inhibition percentages (%IABTS) of each complex compared to the control, according to the formula: %IABTS=A0−A/A0×100 where A0 is the absorbance at 730 nm of the control reaction and A is the absorbance at 730 nm in the presence of samples.
IC50 values for the Ru complexes were calculated from the %IABTS using GraphPad Prism 9 software (GraphPad Inc., San Diego, CA, USA). Trolox was employed as the positive control.

[2] = Conductivity measurements (hydrolytic stability); assay type: physicochemical; conditions: DMSO/H2O 90/10, solutions about 10^−3 M, room temperature
Procedure: The proposed structures and hydrolytic stability were supported by conductivity measurements (solutions about 10^−3 M); in fact, the conductance values for the Ru compounds I, IV, V, and VI determined in DMSO/H2O 90/10 are substantially independent of the concentration, which is close to zero. […] This was attributed to the presence of a small amount of sodium iodide in the sample (about 10 mol%).
The NMR spectra were recorded on a Bruker AM 250 spectrometer (250 MHz for ^1H; 62.5 MHz for ^13C), a Bruker AM 300 spectrometer (300 MHz for ^1H; 75 MHz for ^13C), and a Bruker AVANCE 400 spectrometer (400 MHz for ^1H; 100 MHz for ^13C; 161.97 MHz for ^31P; 376 MHz for ^19F). NMR samples were prepared by solubilizing about 15 mg of compound in 0.5 mL of deuterated solvent. The ^1H and ^13C NMR chemical shifts are referenced to SiMe4 (δ = 0 ppm) using the residual proton impurities of the deuterated solvents as internal standards. ^1H NMR spectra are referenced using the residual solvent peak δ 2.50 for DMSO-d6 and δ 7.27 for CDCl3. ^13C NMR spectra are referenced using the residual solvent peak at δ 39.51 for DMSO-d6 and δ 77.23 for CDCl3. Multiplicities are abbreviated as follows: singlet (s), doublet (d), triplet (t), multiplet (m), doublet of doublets (dd), broad (br), and overlapped (o). Elemental analysis was conducted using a PERKIN-Elmer 240-C analyzer. ESI-MS measurements were performed on a Waters Quattro Micro triple quadrupole mass spectrometer, equipped with an electrospray ion source. MALDI-MS mass spectra were achieved by a Bruker SolariX XR Fourier transform ion cyclotron resonance mass spectrometer (Bruker Daltonik GmbH, Bremen, Germany) with a 7 T refrigerated actively shielded superconducting magnet (Bruker Biospin, Wissembourg, France). MALDI ion source (Bruker Daltonik GmbH, Bremen, Germany) was used in the samples in positive ion mode. The mass range was set to m/z 200–3000. The laser power was 28% and 22 laser shots were utilized for each scan. The mass spectra were calibrated externally using a mix of peptide clusters in MALDI ionization positive ion mode. A linear calibration was applied. The molar conductance of the ruthenium complexes was measured at room temperature by a Metrohm 712 Conductometer using freshly prepared 10^−3 M solutions in DMSO/H2O 90/10 solvent.

| Structure (SMILES) | IC50 [1] [µM] | ABTS IC50 fold lower than that of Trolox ([1]; IC50 ratio to Trolox) | conductivity [2] |
| --- | --- | --- | --- |
| CN1C=CN2CC(c3ccccc3)[O+](C)[Ru]([Cl])=[C]12.Cc1ccc(C(C)C)cc1.F[P-](F)(F)(F)(F)F (stereo not shown) [RANHC-III] | 5.53 ± 1.1 | about 17 fold | 6.3–25.6 μS cm^−1 |
| COC(Cn1ccn(C)[c]1=[Ru]([I])[I])c1ccccc1.Cc1ccc(C(C)C)cc1 (stereo not shown) [RANHC-II] | 16.1 ± 0.7 | – | 13.1–44.2 μS cm^−1 |
| COC(Cn1ccn(C)[c]1=[Ru]1[O]C(=O)C(=O)[O]1)c1ccccc1.Cc1ccc(C(C)C)cc1 (stereo not shown) [RANHC-IV] | 8.57 ± 1.1 | – | close to zero |
| COC(Cn1ccn(C)[c]1=[Ru]([Cl])[Cl])c1ccccc1.Cc1ccc(C(C)C)cc1 (stereo not shown) [RANHC-I] | 13.5 ± 0.7 | – | close to zero |
| COC(Cn1[c](=[Ru]([Cl])[Cl])n(C)c2ccccc21)c1ccccc1.Cc1ccc(C(C)C)cc1 (stereo not shown) [RANHC-VI] | 17.2 ± 1.1 | – | close to zero |
| COC(Cn1c(Cl)c(Cl)n(C)[c]1=[Ru]([Cl])[Cl])c1ccccc1.Cc1ccc(C(C)C)cc1 (stereo not shown) [RANHC-V] | 11.4 ± 0.8 | – | close to zero |
